Source: PubChem BioAssay (NCI)
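Five concentrations, 48 hours, 96-well plates. TGI is the concentration that stops growth completely.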

What was measured:
Assay in all cases: NCI tumour cell line growth inhibition, 48 h
OVCAR-8 ovarian = test system: OVCAR-8 ovarian
UACC-257 melanoma = test system: UACC-257 melanoma
DLD-1 colon = test system: DLD-1 colon
P388/ADR leukemia = test system: P388/ADR leukemia
SF-295 CNS = test system: SF-295 CNS
SN12K1 renal = test system: SN12K1 renal
SNB-19 CNS = test system: SNB-19 CNS
A498 renal = test system: A498 renal
UACC-62 melanoma = test system: UACC-62 melanoma
SK-MEL-2 melanoma = test system: SK-MEL-2 melanoma
MOLT-4 leukemia = test system: MOLT-4 leukemia
NCI/ADR-RES ovarian = test system: NCI/ADR-RES ovarian
NCI-H522 lung = test system: NCI-H522 lung
DMS 114 small cell lung = test system: DMS 114 small cell lung
SK-OV-3 ovarian = test system: SK-OV-3 ovarian
OVCAR-5 ovarian = test system: OVCAR-5 ovarian
LOX IMVI melanoma = test system: LOX IMVI melanoma
DMS 273 small cell lung = test system: DMS 273 small cell lung
SK-MEL-28 melanoma = test system: SK-MEL-28 melanoma
HOP-92 NSCLC = test system: HOP-92 NSCLC
IGROV1 ovarian = test system: IGROV1 ovarian
HOP-62 NSCLC = test system: HOP-62 NSCLC
SNB-75 CNS = test system: SNB-75 CNS
HCC-2998 colon = test system: HCC-2998 colon
CAKI-1 renal = test system: CAKI-1 renal
NCI-H226 lung = test system: NCI-H226 lung
XF 498 CNS = test system: XF 498 CNS
MCF7 breast = test system: MCF7 breast
K-562 leukemia = test system: K-562 leukemia
NCI-H460 lung = test system: NCI-H460 lung
HCT-15 colon = test system: HCT-15 colon
SN12C renal = test system: SN12C renal
HL-60(TB) leukemia = test system: HL-60(TB) leukemia
SF-539 CNS = test system: SF-539 CNS
RPMI-8226 leukemia = test system: RPMI-8226 leukemia
RXF 393 renal = test system: RXF 393 renal
OVCAR-3 ovarian = test system: OVCAR-3 ovarian
SW-620 colon = test system: SW-620 colon
HCT-116 colon = test system: HCT-116 colon
KM20L2 colon = test system: KM20L2 colon
M19-MEL melanoma = test system: M19-MEL melanoma
SK-MEL-5 melanoma = test system: SK-MEL-5 melanoma
EKVX NSCLC = test system: EKVX NSCLC
NCI-H23 lung = test system: NCI-H23 lung
A549 NSCLC = test system: A549 NSCLC
P388 leukemia = test system: P388 leukemia
OVCAR-4 ovarian = test system: OVCAR-4 ovarian
U251 CNS = test system: U251 CNS
KM12 colon = test system: KM12 colon
SNB-78 CNS = test system: SNB-78 CNS
SF-268 CNS = test system: SF-268 CNS
HOP-18 NSCLC = test system: HOP-18 NSCLC
COLO 205 colon = test system: COLO 205 colon
HT29 colon = test system: HT29 colon
UO-31 renal = test system: UO-31 renal
CCRF-CEM leukemia = test system: CCRF-CEM leukemia
PC-3 prostate = test system: PC-3 prostate
ACHN renal = test system: ACHN renal
DU-145 prostate = test system: DU-145 prostate
TK-10 renal = test system: TK-10 renal
MALME-3M melanoma = test system: MALME-3M melanoma
MDA-MB-435 = test system: MDA-MB-435
M14 melanoma = test system: M14 melanoma
T-47D breast = test system: T-47D breast
MDA-N = test system: MDA-N
MDA-MB-231 breast = test system: MDA-MB-231 breast
BT-549 breast = test system: BT-549 breast
786-0 renal = test system: 786-0 renal
HS 578T breast = test system: HS 578T breast
SR leukemia = test system: SR leukemia
RXF-631 renal = test system: RXF-631 renal
LXFL 529 NSCLC = test system: LXFL 529 NSCLC

COc1ccc(-c2nc3ccc([N+](=O)[O-])cc3c(=O)[nH]2)cc1
TGI (OVCAR-8 ovarian): > 72.2 µM
TGI (UACC-257 melanoma): > 100 µM
TGI (DLD-1 colon): > 100 µM
TGI (P388/ADR leukemia): > 100 µM
TGI (SF-295 CNS): > 63.3 µM
TGI (SN12K1 renal): > 86.5 µM
TGI (SNB-19 CNS): 55.3 µM
TGI (A498 renal): > 100 µM
TGI (UACC-62 melanoma): > 100 µM
TGI (SK-MEL-2 melanoma): > 100 µM
TGI (MOLT-4 leukemia): > 100 µM
TGI (NCI/ADR-RES ovarian): > 100 µM
TGI (NCI-H522 lung): 90.5 µM
TGI (DMS 114 small cell lung): > 100 µM
TGI (SK-OV-3 ovarian): 29.3 µM
TGI (OVCAR-5 ovarian): > 100 µM
TGI (LOX IMVI melanoma): > 100 µM
TGI (DMS 273 small cell lung): > 100 µM
TGI (SK-MEL-28 melanoma): > 100 µM
TGI (HOP-92 NSCLC): 45.8 µM
TGI (IGROV1 ovarian): 71.5 µM
TGI (HOP-62 NSCLC): > 67.7 µM
TGI (SNB-75 CNS): 31 µM
TGI (HCC-2998 colon): > 100 µM
TGI (CAKI-1 renal): > 86.7 µM
TGI (NCI-H226 lung): 59.1 µM
TGI (XF 498 CNS): 46.3 µM
TGI (MCF7 breast): > 100 µM
TGI (K-562 leukemia): > 100 µM
TGI (NCI-H460 lung): > 100 µM
TGI (HCT-15 colon): > 100 µM
TGI (SN12C renal): > 100 µM
TGI (HL-60(TB) leukemia): > 100 µM
TGI (SF-539 CNS): 29.7 µM
TGI (RPMI-8226 leukemia): > 100 µM
TGI (RXF 393 renal): > 75.6 µM
TGI (OVCAR-3 ovarian): 64.3 µM
TGI (SW-620 colon): > 100 µM
TGI (HCT-116 colon): > 79.4 µM
TGI (KM20L2 colon): > 100 µM
TGI (M19-MEL melanoma): > 100 µM
TGI (SK-MEL-5 melanoma): > 100 µM
TGI (EKVX NSCLC): > 100 µM
TGI (NCI-H23 lung): > 86.8 µM
TGI (A549 NSCLC): > 100 µM
TGI (P388 leukemia): > 100 µM
TGI (OVCAR-4 ovarian): 33.4 µM
TGI (U251 CNS): > 64.3 µM
TGI (KM12 colon): > 100 µM
TGI (SNB-78 CNS): 71.8 µM
TGI (SF-268 CNS): 67.3 µM
TGI (HOP-18 NSCLC): > 100 µM
TGI (COLO 205 colon): > 100 µM
TGI (HT29 colon): > 100 µM
TGI (UO-31 renal): > 100 µM
TGI (CCRF-CEM leukemia): > 100 µM

CN1C(c2ccccc2)CC(=NOCc2ccccc2)CC1c1ccccc1 (stereo not given)
TGI (PC-3 prostate): > 66.3 µM
TGI (OVCAR-8 ovarian): 44.9 µM
TGI (UACC-257 melanoma): > 97 µM
TGI (DLD-1 colon): > 100 µM
TGI (SF-295 CNS): > 74.8 µM
TGI (SNB-19 CNS): > 56.2 µM
TGI (A498 renal): 68.8 µM
TGI (UACC-62 melanoma): > 76.3 µM
TGI (SK-MEL-2 melanoma): > 95.4 µM
TGI (MOLT-4 leukemia): 71.2 µM
TGI (ACHN renal): 69.1 µM
TGI (NCI/ADR-RES ovarian): 42.4 µM
TGI (NCI-H522 lung): 56 µM
TGI (DMS 114 small cell lung): 33.1 µM
TGI (SK-OV-3 ovarian): > 96.9 µM
TGI (OVCAR-5 ovarian): > 100 µM
TGI (LOX IMVI melanoma): 29.9 µM
TGI (DMS 273 small cell lung): > 100 µM
TGI (DU-145 prostate): > 100 µM
TGI (SK-MEL-28 melanoma): > 76.3 µM
TGI (HOP-92 NSCLC): 81 µM
TGI (IGROV1 ovarian): 62.1 µM
TGI (TK-10 renal): 70.9 µM
TGI (MALME-3M melanoma): > 87.8 µM
TGI (HOP-62 NSCLC): > 73.3 µM
TGI (MDA-MB-435): 39.2 µM
TGI (SNB-75 CNS): 62.1 µM
TGI (HCC-2998 colon): > 100 µM
TGI (CAKI-1 renal): > 80 µM
TGI (NCI-H226 lung): 84.8 µM
TGI (XF 498 CNS): > 100 µM
TGI (MCF7 breast): > 56.8 µM
TGI (M14 melanoma): > 78 µM
TGI (K-562 leukemia): 44.3 µM
TGI (NCI-H460 lung): 39.9 µM
TGI (HCT-15 colon): 49.2 µM
TGI (SN12C renal): 62 µM
TGI (T-47D breast): 36 µM
TGI (HL-60(TB) leukemia): 48.8 µM
TGI (SF-539 CNS): > 75.6 µM
TGI (RPMI-8226 leukemia): > 100 µM
TGI (RXF 393 renal): > 84.7 µM
TGI (OVCAR-3 ovarian): 58.7 µM
TGI (MDA-N): > 56.3 µM
TGI (SW-620 colon): > 75.4 µM
TGI (HCT-116 colon): 37.6 µM
TGI (KM20L2 colon): > 100 µM
TGI (MDA-MB-231 breast): > 100 µM
TGI (M19-MEL melanoma): > 100 µM
TGI (SK-MEL-5 melanoma): 70.6 µM
TGI (EKVX NSCLC): > 69.3 µM
TGI (NCI-H23 lung): 71.5 µM
TGI (BT-549 breast): 30.6 µM
TGI (A549 NSCLC): 43 µM
TGI (OVCAR-4 ovarian): 48.9 µM
TGI (786-0 renal): 53.7 µM
TGI (HS 578T breast): > 73.3 µM
TGI (U251 CNS): 55.2 µM
TGI (SR leukemia): 87.1 µM
TGI (KM12 colon): 47.9 µM
TGI (SNB-78 CNS): > 100 µM
TGI (SF-268 CNS): 50.4 µM
TGI (HOP-18 NSCLC): > 100 µM
TGI (COLO 205 colon): 88.6 µM
TGI (RXF-631 renal): > 61.9 µM
TGI (HT29 colon): 62.2 µM
TGI (UO-31 renal): > 73.7 µM
TGI (CCRF-CEM leukemia): 70.8 µM
TGI (LXFL 529 NSCLC): 30.8 µM
